The subject of one assay is MV-4-11. The assay is described as follows: Cell proliferation modulatory activity, MV-4-11. In kind it is cell-based. As to conditions: Homo sapiens, MV4-11; MV-4-11 cells.
In a further assay the target is recombinant human CK2 (Homo sapiens (Human), UniProt P68400). The assay is described as follows: CK2 assay (cell-free, 33P-ATP filter plate). In kind it is biochemical. As to conditions: 500 nM compound, cell-free assay; read-out: CK2: % inh 500 nM.
The subject of a further assay is K-562. The experiment in a line: Cell proliferation modulatory activity, K-562. In kind it is cell-based. The settings on record: Homo sapiens, K562; K-562 cells.
Assay [1] concerns HCT-116 human colorectal carcinoma cells. The assay is described as follows: Cell-proliferation assay using Alamar Blue dye.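 Further: cells exposed to compound for about 4 days, then Alamar Blue added and dye fluorescence read after about 4 h, compared with medium-only control wells.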 In kind it is cell-based. As to conditions: Homo sapiens, HCT-116, second HCT-116 column (c8); read-out: HCT-116 (uM) cell proliferation modulatory activity. (The colour change of resazurin is a common sign of viable cells or microbes.)
Another assay deals with recombinant human PIM1 (Homo sapiens (Human), UniProt P11309). The assay is described as follows: PIM-1 kinase activity in cell-free in vitro assay. In kind it is biochemical. As to conditions: cell-free assay; for inhibition at 0.5 µM: 500 nM compound, read-out: PIM-1: % inh 500 nM.
recombinant human PIM1, sequence (P11309 whole entry): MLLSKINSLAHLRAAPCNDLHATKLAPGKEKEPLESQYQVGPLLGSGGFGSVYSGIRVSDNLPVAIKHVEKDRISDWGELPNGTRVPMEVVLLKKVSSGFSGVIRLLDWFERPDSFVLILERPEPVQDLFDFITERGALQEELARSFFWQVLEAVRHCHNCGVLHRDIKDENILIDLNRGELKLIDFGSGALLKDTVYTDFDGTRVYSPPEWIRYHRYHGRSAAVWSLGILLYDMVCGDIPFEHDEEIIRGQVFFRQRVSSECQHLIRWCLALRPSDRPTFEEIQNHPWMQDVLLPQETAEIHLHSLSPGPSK

The structures appear in SMILES notation.

recombinant human CK2, sequence (P68400 whole entry): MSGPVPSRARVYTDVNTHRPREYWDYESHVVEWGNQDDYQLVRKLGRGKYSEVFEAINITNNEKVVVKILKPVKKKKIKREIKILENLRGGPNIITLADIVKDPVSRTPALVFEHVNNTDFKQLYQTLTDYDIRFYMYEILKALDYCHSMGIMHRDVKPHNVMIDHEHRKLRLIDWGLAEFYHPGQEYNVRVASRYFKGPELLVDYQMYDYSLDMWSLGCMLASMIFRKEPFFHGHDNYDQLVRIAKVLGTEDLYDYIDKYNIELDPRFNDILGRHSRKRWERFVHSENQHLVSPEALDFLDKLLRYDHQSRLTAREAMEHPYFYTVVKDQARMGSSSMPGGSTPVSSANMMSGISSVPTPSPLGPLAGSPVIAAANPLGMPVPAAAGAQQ
recombinant human CK2, sequence (P67870 whole entry partner): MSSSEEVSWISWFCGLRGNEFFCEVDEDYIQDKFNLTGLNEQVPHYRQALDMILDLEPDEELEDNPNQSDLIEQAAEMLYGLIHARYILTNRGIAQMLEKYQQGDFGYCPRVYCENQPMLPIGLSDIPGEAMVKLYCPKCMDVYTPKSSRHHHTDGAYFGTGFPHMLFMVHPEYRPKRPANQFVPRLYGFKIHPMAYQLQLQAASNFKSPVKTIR

With `COCCNC(=O)c1ccc2c(c1)nc(NCCN(C)C)c1ccsc12`, the IC50 (in the assay on MV-4-11; in the assay on K-562; in assay [1]) was above 10 µM each time. For the same compound, the inhibition at 0.5 µM on recombinant human CK2 is -12.9%; at recombinant human PIM1 it was -3.76%.
Turning to `NC(=O)c1cc(F)cc(Nc2nc3cc(C(=O)O)ccc3c3cnccc23)c1`, the IC50 in the assay on MV-4-11 is above 10 µM; with K-562 it was above 10 µM; in assay [1], above 10 µM; on recombinant human PIM1, 0.093 µM. The figures for the inhibition at 0.5 µM at recombinant human CK2 and on recombinant human PIM1 were 99.2% and 85%, respectively.
On to `c1ccc(Nc2nc3ccccc3c3cnccc23)cc1`, for which the IC50 was 7.04 µM in the assay with MV-4-11, above 10 µM in the assay on K-562 and above 10 µM in assay [1]. For the same compound, the inhibition at 0.5 µM stood at 0.786% at recombinant human CK2 and 7% at recombinant human PIM1.
As for `CN(C)CCNc1nc2cc(C(=O)NC3CCCCC3)ccc2c2sccc12`, the IC50 (in the assay on MV-4-11; with K-562; in assay [1]) was above 10 µM in each case. Further, the inhibition at 0.5 µM on recombinant human CK2 was -10.6%; on recombinant human PIM1, -3.1%.
As to `Clc1nc2ccccc2c2cnccc12`, the IC50 (in the assay with MV-4-11; with K-562; in assay [1]) was above 10 µM each time. The inhibition at 0.5 µM is 9.99% at recombinant human CK2 and -2.61% at recombinant human PIM1.
On to `N#Cc1cc(F)cc(Nc2nc3cc(C(=O)O)ccc3c3cnccc23)c1`, for which the IC50 in the assay on MV-4-11 is above 10 µM; with K-562, above 10 µM; in assay [1], above 10 µM; at recombinant human PIM1, 0.096 µM. In addition, the inhibition at 0.5 µM at recombinant human CK2 worked out at 101%; on recombinant human PIM1, 94.6%.
For `Cc1ccc(Nc2nc3cc(C(=O)O)ccc3c3cnccc23)cc1`, the IC50 in the assay with MV-4-11 was 9.31 µM; in the assay on K-562 it was 0.132 µM; in assay [1], above 10 µM; on recombinant human PIM1, 0.478 µM. For the same compound, the inhibition at 0.5 µM is 98% at recombinant human CK2 and 60.6% at recombinant human PIM1.
Regarding `N#Cc1ccc2c(c1)nc(Nc1cccc(C(F)(F)F)c1)c1cscc12`, the IC50 (with MV-4-11; in the assay with K-562; in assay [1]) was above 10 µM throughout. The inhibition at 0.5 µM on recombinant human CK2 is -2.65%; on recombinant human PIM1, -33.2%.
As for `N#Cc1ccc2c(c1)nc(Nc1ccc(Cl)cc1)c1cscc12`, the IC50 (with MV-4-11; with K-562; in assay [1]) was above 10 µM each time. The inhibition at 0.5 µM on recombinant human CK2 was -2.49%; on recombinant human PIM1, -35.8%.
As for `N#Cc1ccc2c(c1)nc(NCc1ccc(C(N)=O)cc1)c1ccsc12`, the IC50 (in the assay on MV-4-11; in the assay with K-562; in assay [1]) was above 10 µM each time. Also, the inhibition at 0.5 µM at recombinant human CK2 was -4.69%; on recombinant human PIM1, -23.8%.
On to `N#Cc1ccc2c(c1)nc(NC1CCNCC1)c1ccsc12`, for which the IC50 in the assay on MV-4-11 was 1.26 µM; in the assay with K-562, above 10 µM; in assay [1], 3.15 µM; at recombinant human PIM1 it was 0.416 µM. The figures for the inhibition at 0.5 µM on recombinant human CK2 and on recombinant human PIM1 were 27.1% and 70.1%, respectively.
For the compound `CN1CCN(c2nc3cc(-c4nnn[nH]4)ccc3c3sccc23)CC1`, the IC50 with MV-4-11 is above 10 µM; with K-562, above 10 µM; in assay [1] it was above 10 µM; on recombinant human PIM1, 0.178 µM. The inhibition at 0.5 µM on recombinant human CK2 came out at 7.3%; at recombinant human PIM1, 81.3%.
Turning to `CN(C)CCNc1nc2cc(C(=O)NC3CC3)ccc2c2sccc12`, the IC50 in the assay on MV-4-11 was above 10 µM; in the assay with K-562, 1.89 µM; in assay [1], 2.34 µM. Besides, the figures for the inhibition at 0.5 µM at recombinant human CK2 and on recombinant human PIM1 were 1.39% and 13.7%, respectively.
Regarding `O=C(O)c1ccc2c(c1)nc(Nc1cc(F)ccc1Br)c1ccncc12`, the IC50 with MV-4-11 is 4.13 µM; in the assay with K-562, above 10 µM; in assay [1] it was above 10 µM; at recombinant human PIM1, 0.376 µM. For the same compound, the figures for the inhibition at 0.5 µM at recombinant human CK2 and at recombinant human PIM1 were 98.4% and 64.5%, respectively.
As for `O=C(O)c1ccc2c(c1)nc(Nc1ccc3c(c1)OCO3)c1ccncc12`, the IC50 was 8.87 µM in the assay with MV-4-11, above 10 µM in the assay on K-562, above 10 µM in assay [1] and 0.157 µM at recombinant human PIM1. Also, the values for the inhibition at 0.5 µM on recombinant human CK2 and on recombinant human PIM1 were 101% and 76%, respectively.
`N#Cc1ccc2c(c1)nc(N1CCC[C@H]1C(N)=O)c1ccsc12`: the IC50 (in the assay with MV-4-11; with K-562; in assay [1]) was above 10 µM each time. Moreover, the values for the inhibition at 0.5 µM on recombinant human CK2 and on recombinant human PIM1 were 4.42% and 12.2%, respectively.
Regarding `c1cc2c(NCCN3CCCCC3)nc3cc(-c4nnn[nH]4)ccc3c2s1`, the IC50 with MV-4-11 was above 10 µM; in the assay on K-562 it was above 10 µM; in assay [1] it was above 10 µM; at recombinant human PIM1 it was 0.313 µM. Besides, the inhibition at 0.5 µM on recombinant human CK2 is 37.1%; on recombinant human PIM1, 81.1%.
On to `N#Cc1ccc2c(c1)nc(NCC(O)c1ccccc1)c1ccsc12` (centres unmarked), for which the IC50 (in the assay on MV-4-11; in the assay with K-562; in assay [1]) was above 10 µM throughout. Moreover, the inhibition at 0.5 µM at recombinant human CK2 was -9.58%; on recombinant human PIM1 it was 6.38%.
`COc1cc(Nc2nc3cc(C(=O)O)ccc3c3cnccc23)cc(OC)c1`: the IC50 is 6.94 µM in the assay on MV-4-11, above 10 µM with K-562, above 10 µM in assay [1] and 0.152 µM on recombinant human PIM1. For the same compound, the inhibition at 0.5 µM was found to be 99.4% at recombinant human CK2 and 72% on recombinant human PIM1.
In the case of `CN(c1ccccc1)c1nc2cc(C(=O)O)ccc2c2ccncc12`, the IC50 in the assay on MV-4-11 is above 10 µM; in the assay with K-562, above 10 µM; in assay [1], above 10 µM; on recombinant human PIM1, 0.602 µM. Further, the inhibition at 0.5 µM stood at 15.3% at recombinant human CK2 and 56.8% at recombinant human PIM1.
On to `CN(CCc1ccccn1)c1nc2cc(C#N)ccc2c2sccc12`, for which the IC50 (with MV-4-11; with K-562; in assay [1]) was above 10 µM each time. Further, the inhibition at 0.5 µM worked out at 44.5% at recombinant human CK2 and 19.4% at recombinant human PIM1.
As for `N#Cc1ccc2c(c1)nc(N1CCNC(=O)C1)c1ccsc12`, the IC50 (in the assay on MV-4-11; in the assay with K-562; in assay [1]) was above 10 µM each time. The values for the inhibition at 0.5 µM on recombinant human CK2 and on recombinant human PIM1 were -4.51% and 8.04%, respectively.
On to `O=C(O)c1ccc2c(c1)nc(Nc1cccc3ccccc13)c1ccncc12`, for which the IC50 (in the assay on MV-4-11; in the assay with K-562; in assay [1]) was above 10 µM throughout. In addition, the results for the inhibition at 0.5 µM at recombinant human CK2 and on recombinant human PIM1 were 93.1% and 35.7%, respectively.
In the case of `CC(C)OCCCNc1nc2cc(C(=O)O)ccc2c2cnccc12`, the IC50 was 7.01 µM in the assay on MV-4-11, above 10 µM in the assay with K-562, above 10 µM in assay [1] and 0.402 µM at recombinant human PIM1. Also, the inhibition at 0.5 µM is 98.5% on recombinant human CK2 and 60.8% on recombinant human PIM1.
For `CNC(=O)c1ccc2c(c1)nc(NCCN(C)C)c1ccsc12`, the IC50 in the assay with MV-4-11 was 0.535 µM; with K-562 it was above 10 µM; in assay [1], above 10 µM. Also, the inhibition at 0.5 µM at recombinant human CK2 worked out at 8.24%; at recombinant human PIM1, 5.73%.
For the compound `CN(CCN1CCCC1)c1nc2cc(C#N)ccc2c2sccc12`, the IC50 amounted to 1.84 µM in the assay on MV-4-11, 3.04 µM in the assay with K-562 and 1.41 µM in assay [1]. Further, the inhibition at 0.5 µM at recombinant human CK2 was -20.3%; at recombinant human PIM1, -3.97%.
Consider `CCOCCNc1ncc2c(n1)c(N(C)c1ccccc1)nc1cc(C(=O)O)ccc12`, for which the IC50 with MV-4-11 is above 10 µM; with K-562 it was above 10 µM; in assay [1], above 10 µM; at recombinant human PIM1, 0.649 µM. The figures for the inhibition at 0.5 µM at recombinant human CK2 and on recombinant human PIM1 were 79.4% and 54.9%, respectively.
`Fc1ccc(Nc2nc3cc(-c4nnn[nH]4)ccc3c3cscc23)cc1`: the figures for the IC50 (in the assay on MV-4-11; in the assay with K-562; in assay [1]) were 5.47 µM, above 10 µM and above 10 µM, respectively. Moreover, the results for the inhibition at 0.5 µM on recombinant human CK2 and on recombinant human PIM1 were 37.6% and 30.6%, respectively.
On to `CN(C)CCNc1nc2cc(-c3nnn[nH]3)ccc2c2sc(Br)cc12`, for which the IC50 in the assay with MV-4-11 is above 10 µM; in the assay with K-562, above 10 µM; in assay [1], above 10 µM; on recombinant human PIM1 it was 0.656 µM. The inhibition at 0.5 µM is 24.8% at recombinant human CK2 and 60.7% on recombinant human PIM1.
In the case of `C#Cc1cccc(Nc2nc3cc(C(=O)O)ccc3c3ncccc23)c1`, the IC50 (in the assay on MV-4-11; with K-562; in assay [1]) was above 10 µM throughout. Further, the inhibition at 0.5 µM on recombinant human CK2 stood at 77.5%; at recombinant human PIM1 it was 34.9%.
For the compound `O=C(O)c1ccc2c(c1)nc(Nc1ccc(Br)cc1)c1ccncc12`, the IC50 was 5.9 µM with MV-4-11, above 10 µM with K-562, above 10 µM in assay [1] and 0.365 µM at recombinant human PIM1. The inhibition at 0.5 µM on recombinant human CK2 was determined as 97.8%; on recombinant human PIM1 it was 76.7%.
On to `CC(C)Nc1ncc2c(n1)c(N(C)c1ccccc1)nc1cc(C(=O)O)ccc12`, for which the IC50 (with MV-4-11; in the assay on K-562; in assay [1]) was above 10 µM in each case. In addition, the inhibition at 0.5 µM on recombinant human CK2 was found to be 91.7%; on recombinant human PIM1, 39.9%.
Regarding `NC(=O)c1ccc(Nc2nc3cc(C(=O)O)ccc3c3cnccc23)cc1`, the IC50 in the assay with MV-4-11 was above 10 µM; with K-562, above 10 µM; in assay [1], above 10 µM; on recombinant human PIM1, 0.248 µM. In addition, the inhibition at 0.5 µM on recombinant human CK2 is -5.09%; at recombinant human PIM1, 78.2%.
`CN1CCN(c2nc3cc(C#N)ccc3c3sccc23)CC1`: the IC50 with MV-4-11 was 4.79 µM; with K-562, above 10 µM; in assay [1], 8.77 µM. The inhibition at 0.5 µM is 24.3% at recombinant human CK2 and 15.8% on recombinant human PIM1.
